The values below come from US20230056604A1, “EPIDERMAL GROWTH FACTOR RECEPTOR TYROSINE KINASE INHIBITORS FOR THE TREATMENT OF CANCER” (AstraZeneca AB, priority 2020, published 2023).

The subject of experiment [1] is EGFRm parental cells (HCC2279, HCC2935, HCC4006, II-18, NCI-H1975 and PC9). As to the kind of experiment: Incucyte Caspase-3/7 apoptosis assay in EGFRm parental cell lines. It is filed as cell-based, human. To be noted: panel of 6 EGFRm cell lines; osimertinib 160 nM + Smac mimetic 1 μM vs osimertinib monotherapy; 48 h, normalised to DMSO. The protocol:
Data was calculated as the number of apoptotic events divided by cell confluence, and normalised to the values for DMSO control. Data are presented on a log scale to better visualize all cell lines.
FIG. 3: Multiple Smac mimetic molecules enhance osimertinib-induced apoptosis in NCI-H1975 and PC9 cells Caspase-3/7 activation, a direct readout of apoptotic initiation was measured after 48 h of treatment with either osimertinib monotherapy or its combination with 4 distinct Smac mimetic small molecules in NCI-H1975 and PC9 cells. Data was calculated as the number of apoptotic events divided by cell confluence, and normalised to the values for DMSO control.
PC9 is a cell line derived from human lung adenocarcinoma harbouring the activating mutation in EGFR del E746_A750 (Ex19-del). HCC2935 is a cell line derived from a pleural effusion of human lung adenocarcinoma harbouring the activating mutation in EGFR del E746_T751 (Ex19-del). […]
EGFRm parental cells (HCC2279, HCC2935, HCC4006, II-18, NCI-H1975 and PC9) were seeded in 96 well plated at a concentration of 5000 cells/well. […] Cells were then placed on the Incucyte S3 imaging system and both cell confluence and green fluorescence were measured, every 4 hours. After 96 h the experiment was terminated, and apoptosis values calculated by dividing the number of individual green points (apoptosis events) by cell confluence. […]

The subject of experiment [2] is PC9, HCC2935 and NCI-H1975 cells. The experiment in a line: Incucyte cell confluence: formation and regrowth of osimertinib drug tolerant persister cells. Format: cell-based, human. As for the experimental part:
HCC2935, NCI-H1975 and PC9 cells were treated with osimertinib, AZD5582 or the combination of the two agents for 10 days, after which time drug was removed to allow regrowth of the cells. Cell confluence was measured on the Incucyte imaging platform as a surrogate for cell number.
Representative images were taken from the cell growth experiments in PC9 and HCC2935 cell lines described in FIG. 4. Cells treated for 10 days with either osimertinib alone or osimertinib in combination with AZD5582, at which time drug was removed from 7 days.
FIG. 6: osimertinib DTPs are sensitive to Smac mimetic treatment. Parental PC9 cells were treated with the combination of osimertinib and 4 distinct Smac mimetics to determine the rate of DTP survival and re-growth. Cell confluence was measured on the Incucyte imaging platform as a surrogate for DTP number.
PC9 is a cell line derived from human lung adenocarcinoma harbouring the activating mutation in EGFR del E746_A750 (Ex19-del). HCC2935 is a cell line derived from a pleural effusion of human lung adenocarcinoma harbouring the activating mutation in EGFR del E746_T751 (Ex19-del). HCC2279 is a cell line derived from a human lung adenocarcinoma bearing the activating mutation in EGFR del Em746_A750. HCC4006 is a cell line derived from a human lung adenocarcinoma bearing the activating mutation in EGFR del E746_A750. […]

Experiment [3] relates to subcutaneous PC9 model in nude mice. The experiment in a line: PC9 xenograft tumour growth inhibition and re-growth in vivo. The protocol: Tumour growth inhibition following dosing of vehicle, osimertinib 25 mg/kg PO QD, AZD5582 2 mg/kg IV QW, or the combination of the two agents for 3 weeks followed by a period of re-growth in the subcutaneous, PC9 model in nude mice. Data are represented as mean ±SEM (n=8 per group) or as tumour volume of individual mouse.
Tumour growth inhibition following dosing of vehicle for 3 weeks, osimertinib 25 mg/kg PO QD for 6 weeks, or osimertinib 25 mg/kg PO QD for 3 weeks followed by the combination of osimertinib 25 mg/kg PO QD and AZD5582 2 mg/kg IV QW for 3 weeks followed by a period of re-growth in the subcutaneous, PC9 model in nude mice. Data are represented as mean±SEM (n=8 per group) or as tumour volume of individual mouse.

The test system of experiment [4] is c-IAP1 and c-IAP2 mRNA (BIRC2 and BIRC3) in PC9, HCC2935 and NCI-H1975 cell lines. The experiment in a line: RNAseq gene expression of c-IAP1 and c-IAP2 mRNA in EGFRm cell lines after osimertinib treatment. It is filed as cell-based, human. The settings on record: osimertinib acute (24 h) or chronic (14 d, DTP) vs untreated (DMSO), particularly chronic schedule. As for the experimental part:
FIG. 1: A subset of EGFRm NSCLC cell lines upregulate the expression of c-IAP1 and c-IAP2 mRNA after prolonged treatment with osimertinib. RNA sequencing (RNAseq) was performed in cells chronically treated with osimertinib (14 days) and compared to untreated (DMSO) or acutely treated (24 h) cells. Levels of BIRC2 mRNA (c-IAP1) and BIC3 mRNA (c-IAP2) were plotted on a log 2 scale.
PC9 is a cell line derived from human lung adenocarcinoma harbouring the activating mutation in EGFR del E746_A750 (Ex19-del). HCC2935 is a cell line derived from a pleural effusion of human lung adenocarcinoma harbouring the activating mutation in EGFR del E746_T751 (Ex19-del). HCC2279 is a cell line derived from a human lung adenocarcinoma bearing the activating mutation in EGFR del Em746_A750. HCC4006 is a cell line derived from a human lung adenocarcinoma bearing the activating mutation in EGFR del E746_A750. II-18 is a cell line derived from a human lung adenocarcinoma bearing the activating mutation in EGFR L858R. NCI-H1975 is a cell line derived from a human lung adenocarcinoma bearing the activating mutation in EGFR L858R and the gatekeeper mutation in EGFR T790M.
The purpose of this experiment was to use RNAseq to analyse gene expression in EGFRm cell lines treated both chronically (14 d) or acutely (24 h) with osimertinib.

Molecules are shown by their SMILES. “Also recorded” adds a separate entry of the source.

On to `CN[C@@H](C)C(=O)N[C@H](C(=O)N1CCC[C@H]1C(=O)N[C@H]1c2ccccc2C[C@H]1OCC#CC#CCO[C@@H]1Cc2ccccc2[C@@H]1NC(=O)[C@@H]1CCCN1C(=O)[C@@H](NC(=O)[C@H](C)NC)C1CCCCC1)C1CCCCC1` [AZD5582], for which the “number of apoptotic events (Caspase-3/7 activation) normalised to cell confluence” value in experiment [1] is listed as “enhances osimertinib-induced apoptosis”. Besides, the “percentage confluency (a measure of cell growth)” value in experiment [2] (PC9, HCC2935 or NCI-H1975, 10 days combination with osimertinib (500 nM) then drug removal, vs 10 days osimertinib alone) is reported as “lower percentage confluency; also recorded: enhances the antiproliferative effects of osimertinib”. Also, the “regrowth of cells after drug removal (representative images)” value in experiment [2] (PC9 and HCC2935, 10 days osimertinib + AZD5582, then drug removed for 7 days) was “fail to regrow after drug removal”. Moreover, the “tumour growth inhibition / regrowth after treatment release” value in experiment [3] (minimal residual disease: osimertinib 21 days, then osimertinib + AZD5582 2 mg/kg IV QW 21 days, vs osimertinib alone 42 days, 2 mg/kg) was “delay of regrowth; also recorded: enhances the antiproliferative effects of osimertinib”; in experiment [3] (osimertinib 25 mg/kg PO QD + AZD5582 2 mg/kg IV QW for 21 days vs osimertinib alone for 21 days) it was “delay of regrowth; also recorded: enhances the antiproliferative effects of osimertinib”.
`C=CC(=O)Nc1cc(Nc2nccc(-c3cn(C)c4ccccc34)n2)c(OC)cc1N(C)CCN(C)C` [osimertinib, N-(2-{2-dimethylaminoethyl-methylamino}-4-methoxy-5-{[4-(1-methylindol-3-yl)pyrimidin-2-yl]amino}phenyl) prop-2-enamide]: in experiment [4], the “mRNAs coding for c-IAP1 and c-IAP2 (BIRC2 and BIRC3) expression” value is given as “significantly upregulated”.
